According to patent US5874438A, “2,2'-bridged bis-2,4-diaminoquinazolines” (Bayer Aktiengesellschaft, priority 1996, dated 1999):

What was measured:
[1] = test system: potassium channel (PC12 cells); experiment: Non-radioactive Rb^+ efflux assay for the identification of potassium channel modulators; format: cell-based; settings: 50 mM KCl stimulation, 10 min
Procedure: (§1) The compounds according to the invention are ligands for apamin-sensitive potassium channels. This can be shown by studying the affinity for apamine binding sites, e.g. in bovine cerebral membranes.
2) Non-radioactive Rb^+ efflux assay for the identification of potassium channel modulators
The potassium in PC12 cells is exchanged with rubidium, which is not present in the cells. This exchange is performed by incubating the cells over a period of 4 h in a physiological buffer containing 5.4 mM RbCl without KCl. This rubidium subsequently serves as a tracer for potassium.
The cells laden with Rb^+ in this way are washed three times and then stimulated by depolarization with 50 mM KCl to open potassium channels (10 min), causing Rb^+ to flow out of the cells into the supernatant according to the concentration gradient. The rubidium contents in the cell supernatant and in the residual cells after they have been lysed with 1% Triton X-100 are then determined by means of atomic absorption spectroscopy. The relative proportion of rubidium in the cell supernatant (=Rb^+ efflux) is used as a measure of the potassium channel activity.
The effect of substances on the channel activity is measured by co-incubating the test substance over the ten-minute stimulation period and determining its effect on the Rb^+ efflux in the manner described above.

[2] = target: apamin-sensitive potassium channels; experiment: Binding of ^125 I-apamin to bovine cerebral membrane; settings: ^125 I-apamin 30 pM, calf hippocampus membranes, 60 min on ice
Procedure: as §1
1) Binding of ^125 I-apamin to bovine cerebral membrane
Calf brains were obtained from the local abattoir. The hippocampus was prepared on ice and a membrane suspension was made up by homogenization twice in buffer (100 mM Tris-HCl, KCl 5 mM, pH 7.4) and centrifugation at 43,000×g. In a total volume of 500 μl, the incubation mixture contained 200 μg of membrane protein, 30 pM ^125 I-apamine and test substances in the concentration range 1×10^-9 to […]. The non-specific binding of ^125 I-apamin was determined in the presence of 1×10^-7 M unlabelled apamin.
After preincubation for 30 min at room temperature (test substances and membrane homogenate), the samples were placed on ice for 10 min before the radioligand was added. The main incubation time was 60 min on ice. When the reaction time had elapsed, an excess of ice-cooled incubation buffer was added to each sample and the mixture was filtered with suction through cellulose acetate/nitrate membrane filters. The amount of bound ^125 I-apamin was measured with a gamma counter.

Compound	% inhibition of the Rb efflux at a test concentration of 10 μM [1] [%]	Ki [2] [nM]
CCN(CC)c1nc(N2CCCN(c3nc(N(CC)CC)c4ccccc4n3)CC2)nc2ccccc12 [Example 3, 1,4-Bis-(4-diethylamino-2-quinazolyl)-1,4-diazacycloheptane]	63	
CCN(CC)c1nc(NCC23C=CC(CC2)C2CN(c4nc(N(CC)CC)c5ccccc5n4)CC23)nc2ccccc12.Cl.Cl (stereo not shown) [Example 2, N^2-[4-(4-Diethylamino-quinazolin-2-yl)-4-aza-tricyclo[5.2.2.0^2,6]undec-8-en-1-yl-methyl]-N^4,N^4-diethyl-quinazoline-2,4-diamine dihydrochloride]	72	
CCN(CC)c1nc(N2CCCN(c3nc(N(CC)CC)c4ccccc4n3)CCC2)nc2ccccc12 [Example 1, 1,5-Bis-(4-diethylaminoquinazolin-2-yl)-[1,5]-diazoxane]		340
CCN(CC)c1nc(N2CCCN(c3nc(N(CC)CC)c4cc(Cl)ccc4n3)CC2)nc2ccc(Cl)cc12 [Example 4, 1,4-Bis-(6-chloro-4-diethylamino-2-quinazolyl)-1,4-diazacycloheptane]		140
